{
  "source": "paper PMC4844702",
  "about": "“Selective inhibition of the kinase DYRK1A by targeting its folding process” (Nature Communications, 2016)",
  "assay_in_all_cases": "Kinase panel (Carna)",
  "format_in_all_cases": "biochemical",
  "key": {"PKCη": {"biological_target": "T1, PKCη (Homo sapiens, UniProt P24723)", "T1 construct": "purchased Carna Biosciences", "T1 sequence (P24723 whole entry)": "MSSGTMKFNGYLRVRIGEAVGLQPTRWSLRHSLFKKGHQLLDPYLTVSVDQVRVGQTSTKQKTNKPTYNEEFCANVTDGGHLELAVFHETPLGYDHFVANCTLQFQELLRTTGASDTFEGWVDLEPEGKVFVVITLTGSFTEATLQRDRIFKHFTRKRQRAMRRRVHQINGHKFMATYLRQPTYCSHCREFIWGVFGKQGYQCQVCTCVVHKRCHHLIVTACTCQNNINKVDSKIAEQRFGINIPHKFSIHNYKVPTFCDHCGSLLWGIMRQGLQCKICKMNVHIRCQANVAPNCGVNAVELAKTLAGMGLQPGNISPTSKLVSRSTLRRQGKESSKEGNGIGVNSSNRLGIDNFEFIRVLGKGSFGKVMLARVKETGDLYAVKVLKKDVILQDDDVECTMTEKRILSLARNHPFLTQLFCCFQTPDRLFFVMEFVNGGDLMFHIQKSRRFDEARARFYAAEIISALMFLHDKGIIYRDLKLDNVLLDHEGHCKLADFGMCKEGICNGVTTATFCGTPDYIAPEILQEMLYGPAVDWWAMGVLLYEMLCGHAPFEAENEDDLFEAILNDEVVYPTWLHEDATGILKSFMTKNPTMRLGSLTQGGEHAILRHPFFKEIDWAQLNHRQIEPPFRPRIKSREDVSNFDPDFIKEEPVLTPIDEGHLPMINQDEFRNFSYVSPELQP", "source_text": "(§1) Detailed information on the assay conditions is available on the website of Carna Biosciences (http://www.carnabio.com)."}, "TYK2": {"biological_target": "T2, TYK2 (Homo sapiens, UniProt P29597)", "T2 construct": "purchased Carna Biosciences", "source_text": "as §1"}, "PAK1": {"biological_target": "T3, PAK1 (Homo sapiens, UniProt Q13153)", "T3 construct": "purchased Carna Biosciences", "source_text": "as §1"}, "MST4": {"biological_target": "T4, MST4 (Homo sapiens, UniProt Q9P289)", "T4 construct": "purchased Carna Biosciences", "source_text": "as §1"}, "INSR": {"biological_target": "T5, INSR (Homo sapiens, UniProt P06213)", "T5 construct": "purchased Carna Biosciences", "source_text": "as §1"}, "AKT2": {"biological_target": "T6, AKT2 (Homo sapiens, UniProt P31751)", "T6 construct": "purchased Carna Biosciences", "source_text": "as §1"}, "LATS2": {"biological_target": "T7, LATS2 (Homo sapiens, UniProt Q9NRM7)", "T7 construct": "purchased Carna Biosciences"}, "skMLCK": {"biological_target": "T8, skMLCK (Homo sapiens, UniProt Q9H1R3)", "T8 construct": "purchased Carna Biosciences"}, "JAK3": {"biological_target": "T9, JAK3 (Homo sapiens, UniProt P52333)", "T9 construct": "purchased Carna Biosciences", "source_text": "as §1"}, "DAPK1": {"biological_target": "T10, DAPK1 (Homo sapiens, UniProt P53355)", "T10 construct": "purchased Carna Biosciences", "source_text": "as §1"}, "NEK2": {"biological_target": "T11, NEK2 (Homo sapiens, UniProt P51955)", "T11 construct": "purchased Carna Biosciences"}, "CDK4/CycD3": {"biological_target": "T12, CDK4/CycD3 (Homo sapiens, UniProt P11802)", "T12 construct": "purchased Carna Biosciences", "source_text": "as §1"}, "Erk2": {"biological_target": "T13, Erk2 (Homo sapiens, UniProt P28482)", "T13 construct": "purchased Carna Biosciences", "T13 sequence (P28482 whole entry)": "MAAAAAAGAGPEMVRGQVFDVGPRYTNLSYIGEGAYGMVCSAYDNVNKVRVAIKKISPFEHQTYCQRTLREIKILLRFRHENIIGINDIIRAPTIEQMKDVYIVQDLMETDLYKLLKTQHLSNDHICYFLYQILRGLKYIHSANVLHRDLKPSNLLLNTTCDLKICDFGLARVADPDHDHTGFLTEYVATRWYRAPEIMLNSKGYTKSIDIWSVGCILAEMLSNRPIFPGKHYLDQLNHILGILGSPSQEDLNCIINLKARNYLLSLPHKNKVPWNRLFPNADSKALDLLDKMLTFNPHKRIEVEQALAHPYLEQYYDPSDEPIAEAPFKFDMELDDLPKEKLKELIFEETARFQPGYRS"}, "CaMK1δ": {"biological_target": "T14, CaMK1δ (Homo sapiens, UniProt Q8IU85)", "T14 construct": "purchased Carna Biosciences", "source_text": "as §1"}, "AurA": {"biological_target": "T15, AurA (Homo sapiens, UniProt O14965)", "T15 construct": "purchased Carna Biosciences", "source_text": "as §1"}, "EPHB3": {"biological_target": "T16, EPHB3 (Homo sapiens, UniProt P54753)", "T16 construct": "purchased Carna Biosciences", "source_text": "as §1"}, "PDHK4": {"biological_target": "T17, PDHK4 (Homo sapiens, UniProt Q16654)", "T17 construct": "purchased Carna Biosciences", "source_text": "as §1"}, "PKCβ2": {"biological_target": "T18, PKCβ2 (Homo sapiens, UniProt P05771)", "T18 construct": "purchased Carna Biosciences", "source_text": "as §1"}, "EPHB1": {"biological_target": "T19, EPHB1 (Homo sapiens, UniProt P54762)", "T19 construct": "purchased Carna Biosciences", "source_text": "as §1"}, "EPHA7": {"biological_target": "T20, EPHA7 (Homo sapiens, UniProt Q15375)", "T20 construct": "purchased Carna Biosciences"}, "CDC7/ASK": {"biological_target": "T21, CDC7/ASK (Homo sapiens, UniProt O00311)", "T21 construct": "purchased Carna Biosciences", "source_text": "as §1"}, "MGC42105": {"biological_target": "T22, MGC42105 (Homo sapiens, UniProt Q8IY84)", "T22 construct": "purchased Carna Biosciences", "source_text": "as §1"}, "MRCKβ": {"biological_target": "T23, MRCKβ (Homo sapiens, UniProt Q9Y5S2)", "T23 construct": "purchased Carna Biosciences"}, "Haspin": {"biological_target": "T24, Haspin (Homo sapiens, UniProt Q8TF76)", "T24 construct": "purchased Carna Biosciences"}, "CHK2": {"biological_target": "T25, CHK2 (Homo sapiens, UniProt O96017)", "T25 construct": "purchased Carna Biosciences"}, "RSK4": {"biological_target": "T26, RSK4 (Homo sapiens, UniProt Q9UK32)", "T26 construct": "purchased Carna Biosciences"}, "LYNb": {"biological_target": "T27, LYNb (Homo sapiens, UniProt P07948)", "T27 construct": "purchased Carna Biosciences", "source_text": "as §1"}, "MLK3_Cascade": {"biological_target": "T28, MLK3_Cascade (Homo sapiens, UniProt Q16584)", "T28 construct": "purchased Carna Biosciences", "source_text": "as §1"}, "NEK9": {"biological_target": "T29, NEK9 (Homo sapiens, UniProt Q8TD19)", "T29 construct": "purchased Carna Biosciences", "T29 sequence (Q8TD19 whole entry)": "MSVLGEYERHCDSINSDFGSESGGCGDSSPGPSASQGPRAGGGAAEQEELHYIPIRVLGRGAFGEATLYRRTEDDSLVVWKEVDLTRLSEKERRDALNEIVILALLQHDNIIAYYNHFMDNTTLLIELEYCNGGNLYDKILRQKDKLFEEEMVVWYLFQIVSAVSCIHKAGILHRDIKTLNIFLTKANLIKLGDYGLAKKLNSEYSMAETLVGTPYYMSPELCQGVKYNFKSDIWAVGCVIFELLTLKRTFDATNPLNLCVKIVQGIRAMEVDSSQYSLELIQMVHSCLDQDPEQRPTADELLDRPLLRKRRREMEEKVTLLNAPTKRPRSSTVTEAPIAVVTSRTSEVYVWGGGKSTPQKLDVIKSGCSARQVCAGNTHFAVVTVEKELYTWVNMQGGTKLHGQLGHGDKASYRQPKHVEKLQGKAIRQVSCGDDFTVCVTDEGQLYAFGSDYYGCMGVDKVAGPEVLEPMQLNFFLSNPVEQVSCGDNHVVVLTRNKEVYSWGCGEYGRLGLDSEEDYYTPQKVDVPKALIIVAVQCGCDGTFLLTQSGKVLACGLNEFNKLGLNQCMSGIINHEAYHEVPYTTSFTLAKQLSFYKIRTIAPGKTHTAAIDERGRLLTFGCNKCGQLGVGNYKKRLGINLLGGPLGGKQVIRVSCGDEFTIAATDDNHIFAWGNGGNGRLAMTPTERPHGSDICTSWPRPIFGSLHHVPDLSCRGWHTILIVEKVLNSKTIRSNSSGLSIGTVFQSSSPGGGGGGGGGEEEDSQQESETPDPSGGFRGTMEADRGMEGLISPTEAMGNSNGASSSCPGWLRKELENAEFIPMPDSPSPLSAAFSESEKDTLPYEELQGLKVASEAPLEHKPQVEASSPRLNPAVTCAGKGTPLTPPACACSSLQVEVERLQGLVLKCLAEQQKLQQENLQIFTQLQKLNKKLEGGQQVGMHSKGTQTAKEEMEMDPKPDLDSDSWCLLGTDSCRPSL"}, "AXL": {"biological_target": "T30, AXL (Homo sapiens, UniProt P30530)", "T30 construct": "purchased Carna Biosciences", "source_text": "as §1"}, "HIPK3": {"biological_target": "T31, HIPK3 (Homo sapiens, UniProt Q9H422)", "T31 construct": "purchased Carna Biosciences", "T31 sequence (Q9H422 whole entry)": "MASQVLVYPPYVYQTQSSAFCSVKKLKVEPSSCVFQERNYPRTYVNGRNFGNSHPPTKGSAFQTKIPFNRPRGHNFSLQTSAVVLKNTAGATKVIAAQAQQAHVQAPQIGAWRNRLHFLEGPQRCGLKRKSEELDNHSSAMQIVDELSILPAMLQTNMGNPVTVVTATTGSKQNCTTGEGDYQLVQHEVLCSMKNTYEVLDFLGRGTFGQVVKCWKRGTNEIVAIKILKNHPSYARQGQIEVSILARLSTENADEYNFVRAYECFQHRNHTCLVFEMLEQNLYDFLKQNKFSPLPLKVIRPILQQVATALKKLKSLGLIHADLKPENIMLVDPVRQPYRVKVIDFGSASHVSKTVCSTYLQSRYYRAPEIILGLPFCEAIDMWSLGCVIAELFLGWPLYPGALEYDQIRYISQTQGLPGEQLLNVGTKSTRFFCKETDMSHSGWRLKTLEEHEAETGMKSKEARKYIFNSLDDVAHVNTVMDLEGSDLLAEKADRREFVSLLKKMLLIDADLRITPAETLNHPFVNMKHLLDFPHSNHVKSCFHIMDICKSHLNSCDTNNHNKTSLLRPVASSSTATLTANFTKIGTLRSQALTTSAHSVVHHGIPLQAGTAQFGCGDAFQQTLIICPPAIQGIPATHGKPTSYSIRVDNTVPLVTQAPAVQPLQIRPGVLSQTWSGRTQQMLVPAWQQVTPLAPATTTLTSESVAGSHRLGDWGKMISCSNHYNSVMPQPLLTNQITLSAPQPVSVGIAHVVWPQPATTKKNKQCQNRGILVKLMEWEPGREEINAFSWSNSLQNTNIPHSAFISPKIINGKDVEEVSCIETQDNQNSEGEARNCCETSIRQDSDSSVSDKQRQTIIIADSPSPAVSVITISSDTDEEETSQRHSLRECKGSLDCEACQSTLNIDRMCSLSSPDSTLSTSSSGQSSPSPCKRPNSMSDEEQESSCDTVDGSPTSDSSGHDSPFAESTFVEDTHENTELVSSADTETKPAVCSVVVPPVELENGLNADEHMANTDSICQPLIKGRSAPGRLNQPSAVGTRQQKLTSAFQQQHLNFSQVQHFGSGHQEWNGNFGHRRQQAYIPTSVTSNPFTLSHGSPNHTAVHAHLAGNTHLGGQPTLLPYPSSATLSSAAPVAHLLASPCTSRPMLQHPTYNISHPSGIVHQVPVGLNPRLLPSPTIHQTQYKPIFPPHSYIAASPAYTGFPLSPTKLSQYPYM", "source_text": "as §1"}, "MARK2": {"biological_target": "T32, MARK2 (Homo sapiens, UniProt Q7KZI7)", "T32 construct": "purchased Carna Biosciences", "source_text": "as §1"}, "AMPKα1/β1/γ1": {"biological_target": "T33, AMPKα1/β1/γ1 (Homo sapiens, UniProt Q13131)", "T33 construct": "purchased Carna Biosciences", "source_text": "as §1"}, "PAK4": {"biological_target": "T34, PAK4 (Homo sapiens, UniProt O96013)", "T34 construct": "purchased Carna Biosciences", "T34 sequence (O96013 whole entry)": "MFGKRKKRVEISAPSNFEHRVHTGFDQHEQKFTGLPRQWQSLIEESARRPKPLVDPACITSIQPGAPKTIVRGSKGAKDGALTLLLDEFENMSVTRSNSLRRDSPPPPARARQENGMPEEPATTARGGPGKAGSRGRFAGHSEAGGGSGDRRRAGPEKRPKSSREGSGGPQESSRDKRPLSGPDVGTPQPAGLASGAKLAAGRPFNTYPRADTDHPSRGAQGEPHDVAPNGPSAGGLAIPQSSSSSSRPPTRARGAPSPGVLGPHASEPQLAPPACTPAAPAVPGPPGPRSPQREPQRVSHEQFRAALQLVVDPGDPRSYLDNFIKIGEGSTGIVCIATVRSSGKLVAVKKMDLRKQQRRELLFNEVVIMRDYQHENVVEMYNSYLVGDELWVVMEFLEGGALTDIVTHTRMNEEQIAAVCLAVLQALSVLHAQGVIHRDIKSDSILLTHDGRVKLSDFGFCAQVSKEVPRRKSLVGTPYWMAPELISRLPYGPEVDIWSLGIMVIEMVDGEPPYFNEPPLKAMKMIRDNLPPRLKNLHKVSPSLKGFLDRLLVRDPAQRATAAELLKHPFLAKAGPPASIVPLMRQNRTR", "source_text": "as §1"}, "SGK3": {"biological_target": "T35, SGK3 (Homo sapiens, UniProt Q96BR1)", "T35 construct": "purchased Carna Biosciences", "T35 sequence (Q96BR1 whole entry)": "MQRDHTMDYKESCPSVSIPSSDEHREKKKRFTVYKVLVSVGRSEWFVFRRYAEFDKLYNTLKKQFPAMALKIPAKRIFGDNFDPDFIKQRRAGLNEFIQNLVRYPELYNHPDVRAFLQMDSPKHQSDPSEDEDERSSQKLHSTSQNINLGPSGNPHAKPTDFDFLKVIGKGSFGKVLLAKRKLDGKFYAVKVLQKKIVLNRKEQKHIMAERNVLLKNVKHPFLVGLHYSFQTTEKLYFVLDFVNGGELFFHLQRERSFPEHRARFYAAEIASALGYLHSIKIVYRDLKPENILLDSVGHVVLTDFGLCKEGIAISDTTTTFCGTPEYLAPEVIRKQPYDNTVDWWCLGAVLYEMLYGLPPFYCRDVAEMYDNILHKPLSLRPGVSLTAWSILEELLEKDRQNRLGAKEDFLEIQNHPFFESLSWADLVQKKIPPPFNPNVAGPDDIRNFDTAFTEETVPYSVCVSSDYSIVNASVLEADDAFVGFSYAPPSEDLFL"}, "SGK2": {"biological_target": "T36, SGK2 (Homo sapiens, UniProt Q9HBY8)", "T36 construct": "purchased Carna Biosciences"}, "CaMK2δ": {"biological_target": "T37, CaMK2δ (Homo sapiens, UniProt Q13557)", "T37 construct": "purchased Carna Biosciences"}, "FGFR2": {"biological_target": "T38, FGFR2 (Homo sapiens, UniProt P21802)", "T38 construct": "purchased Carna Biosciences"}, "NDR2": {"biological_target": "T39, NDR2 (Homo sapiens, UniProt Q9Y2H1)", "T39 construct": "purchased Carna Biosciences", "source_text": "as §1"}, "MUSK": {"biological_target": "T40, MUSK (Homo sapiens, UniProt O15146)", "T40 construct": "purchased Carna Biosciences", "source_text": "as §1"}, "FLT3": {"biological_target": "T41, FLT3 (Homo sapiens, UniProt P36888)", "T41 construct": "purchased Carna Biosciences", "source_text": "as §1"}, "PDGFRα": {"biological_target": "T42, PDGFRα (Homo sapiens, UniProt P16234)", "T42 construct": "purchased Carna Biosciences", "source_text": "as §1"}, "BRK": {"biological_target": "T43, BRK (Homo sapiens, UniProt Q13882)", "T43 construct": "purchased Carna Biosciences", "T43 sequence (Q13882 whole entry)": "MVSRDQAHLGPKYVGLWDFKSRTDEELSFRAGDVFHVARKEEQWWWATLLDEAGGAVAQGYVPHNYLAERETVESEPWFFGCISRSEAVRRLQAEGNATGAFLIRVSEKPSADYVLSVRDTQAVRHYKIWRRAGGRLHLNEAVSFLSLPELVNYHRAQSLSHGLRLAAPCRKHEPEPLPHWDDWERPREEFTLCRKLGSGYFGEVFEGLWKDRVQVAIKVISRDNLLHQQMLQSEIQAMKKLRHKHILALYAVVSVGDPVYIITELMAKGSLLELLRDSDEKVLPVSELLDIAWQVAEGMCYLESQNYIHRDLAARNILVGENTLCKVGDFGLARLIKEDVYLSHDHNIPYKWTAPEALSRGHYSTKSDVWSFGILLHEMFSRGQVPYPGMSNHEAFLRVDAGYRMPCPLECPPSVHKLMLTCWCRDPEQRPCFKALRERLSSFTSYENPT", "source_text": "as §1"}, "MNK1": {"biological_target": "T44, MNK1 (Homo sapiens, UniProt Q9BUB5)", "T44 construct": "purchased Carna Biosciences"}, "BRSK1": {"biological_target": "T45, BRSK1 (Homo sapiens, UniProt Q8TDC3)", "T45 construct": "purchased Carna Biosciences", "source_text": "as §1"}},
  "data": [
    {"smiles": "COc1ccc(/C=C2\\SC(=S)NC2=O)cc1C#C[Si](C)(C)C", "note": "[FINDY]", "values": [
      {"measurement": "inhibition at 10 µM", "setting": "PKCη", "value": -12.7, "unit": "%"},
      {"measurement": "inhibition at 10 µM", "setting": "TYK2", "value": -5.4, "unit": "%"},
      {"measurement": "inhibition at 10 µM", "setting": "PAK1", "value": -0.2, "unit": "%"},
      {"measurement": "inhibition at 10 µM", "setting": "MST4", "value": 16.7, "unit": "%"},
      {"measurement": "inhibition at 10 µM", "setting": "INSR", "value": -1.3, "unit": "%"},
      {"measurement": "inhibition at 10 µM", "setting": "AKT2", "value": 23.5, "unit": "%"},
      {"measurement": "inhibition at 10 µM", "setting": "LATS2", "value": 1.2, "unit": "%"},
      {"measurement": "inhibition at 10 µM", "setting": "skMLCK", "value": 2, "unit": "%"},
      {"measurement": "inhibition at 10 µM", "setting": "JAK3", "value": 8.2, "unit": "%"},
      {"measurement": "inhibition at 10 µM", "setting": "DAPK1", "value": 14.8, "unit": "%"},
      {"measurement": "inhibition at 10 µM", "setting": "NEK2", "value": -5.1, "unit": "%"},
      {"measurement": "inhibition at 10 µM", "setting": "CDK4/CycD3", "value": 8, "unit": "%"},
      {"measurement": "inhibition at 10 µM", "setting": "Erk2", "value": 36.4, "unit": "%"},
      {"measurement": "inhibition at 10 µM", "setting": "CaMK1δ", "value": 7.2, "unit": "%"},
      {"measurement": "inhibition at 10 µM", "setting": "AurA", "value": 58.7, "unit": "%"},
      {"measurement": "inhibition at 10 µM", "setting": "EPHB3", "value": 22.2, "unit": "%"},
      {"measurement": "inhibition at 10 µM", "setting": "PDHK4", "value": 14.8, "unit": "%"},
      {"measurement": "inhibition at 10 µM", "setting": "PKCβ2", "value": -2.3, "unit": "%"},
      {"measurement": "inhibition at 10 µM", "setting": "EPHB1", "value": 13.9, "unit": "%"},
      {"measurement": "inhibition at 10 µM", "setting": "EPHA7", "value": 18.7, "unit": "%"},
      {"measurement": "inhibition at 10 µM", "setting": "CDC7/ASK", "value": 14.1, "unit": "%"},
      {"measurement": "inhibition at 10 µM", "setting": "MGC42105", "value": 12.5, "unit": "%"},
      {"measurement": "inhibition at 10 µM", "setting": "MRCKβ", "value": 0.1, "unit": "%"},
      {"measurement": "inhibition at 10 µM", "setting": "Haspin", "value": 30.3, "unit": "%"},
      {"measurement": "inhibition at 10 µM", "setting": "CHK2", "value": 6.3, "unit": "%"},
      {"measurement": "inhibition at 10 µM", "setting": "RSK4", "value": 29.6, "unit": "%"},
      {"measurement": "inhibition at 10 µM", "setting": "LYNb", "value": 11.4, "unit": "%"},
      {"measurement": "inhibition at 10 µM", "setting": "MLK3_Cascade", "value": 40.5, "unit": "%"},
      {"measurement": "inhibition at 10 µM", "setting": "NEK9", "value": -3.3, "unit": "%"},
      {"measurement": "inhibition at 10 µM", "setting": "AXL", "value": 6.7, "unit": "%"},
      {"measurement": "inhibition at 10 µM", "setting": "HIPK3", "value": 7.1, "unit": "%"},
      {"measurement": "inhibition at 10 µM", "setting": "MARK2", "value": 60.8, "unit": "%"},
      {"measurement": "inhibition at 10 µM", "setting": "AMPKα1/β1/γ1", "value": 8.6, "unit": "%"},
      {"measurement": "inhibition at 10 µM", "setting": "PAK4", "value": -20.1, "unit": "%"},
      {"measurement": "inhibition at 10 µM", "setting": "SGK3", "value": 21.7, "unit": "%"},
      {"measurement": "inhibition at 10 µM", "setting": "SGK2", "value": 30.9, "unit": "%"},
      {"measurement": "inhibition at 10 µM", "setting": "CaMK2δ", "value": -4, "unit": "%"},
      {"measurement": "inhibition at 10 µM", "setting": "FGFR2", "value": 19.7, "unit": "%"},
      {"measurement": "inhibition at 10 µM", "setting": "NDR2", "value": 8.1, "unit": "%"},
      {"measurement": "inhibition at 10 µM", "setting": "MUSK", "value": 4.1, "unit": "%"},
      {"measurement": "inhibition at 10 µM", "setting": "FLT3", "value": 16, "unit": "%"},
      {"measurement": "inhibition at 10 µM", "setting": "PDGFRα", "value": 14.8, "unit": "%"},
      {"measurement": "inhibition at 10 µM", "setting": "BRK", "value": 3, "unit": "%"},
      {"measurement": "inhibition at 10 µM", "setting": "MNK1", "value": 6.2, "unit": "%"},
      {"measurement": "inhibition at 10 µM", "setting": "BRSK1", "value": 24.3, "unit": "%"}
    ]}
  ]
}
